According to PubChem BioAssay AID248 (DTP/NCI, 2004):
Toxic doses and inconclusive results are not listed. No stated cut-off is given here; in the data, active means T/C of 150% or more; inactive means T/C below 125%.

System: L1210 leukemia ip in BDF1 mice, survival T/C
Assay: NCI In Vivo Anticancer Drug Screen. Data for tumor model L1210 Leukemia (intraperitoneal) in B6D2F1 (BDF1) mice
Settings: endpoint: mean survival time, higher = longer survival
How it was run: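 Ratio derived from survival: compound-dosed mice over vehicle-dosed mice, all bearing a transplantable tumor.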

[1] = dose: 100.0 mg/kg/injection, schedule: Q01DX009 (ip), vehicle: saline with Tween-80
[2] = dose: 75.0 mg/kg/injection, schedule: Q01DX001 (ip), vehicle: saline
[3] = dose: 150.0 mg/kg/injection, schedule: Q01DX001 (ip), vehicle: saline
[4] = dose: 100.0 mg/kg/injection, schedule: Q01DX001 (ip), vehicle: carboxymethylcellulose (CMC)
[5] = dose: 200.0 mg/kg/injection, schedule: Q01DX001 (ip), vehicle: carboxymethylcellulose (CMC)
[6] = dose: 400.0 mg/kg/injection, schedule: Q01DX001 (ip), vehicle: carboxymethylcellulose (CMC)
[7] = dose: 100.0 mg/kg/injection, schedule: Q04DX002 (ip), vehicle: Klucel (hydroxypropylcellulose) (HPC)
[8] = dose: 200.0 mg/kg/injection, schedule: Q04DX002 (ip), vehicle: Klucel (hydroxypropylcellulose) (HPC)
[9] = dose: 400.0 mg/kg/injection, schedule: Q04DX002 (ip), vehicle: Klucel (hydroxypropylcellulose) (HPC)
[10] = dose: 100.0 mg/kg/injection, schedule: Q01DX009 (ip), vehicle: Klucel (hydroxypropylcellulose) (HPC)
[11] = dose: 200.0 mg/kg/injection, schedule: Q01DX009 (ip), vehicle: Klucel (hydroxypropylcellulose) (HPC)
[12] = dose: 400.0 mg/kg/injection, schedule: Q01DX009 (ip), vehicle: Klucel (hydroxypropylcellulose) (HPC)
[13] = dose: 100.0 mg/kg/injection, schedule: Q04DX003 (ip), vehicle: Klucel (hydroxypropylcellulose) (HPC)
[14] = dose: 200.0 mg/kg/injection, schedule: Q04DX003 (ip), vehicle: Klucel (hydroxypropylcellulose) (HPC)
[15] = dose: 400.0 mg/kg/injection, schedule: Q04DX003 (ip), vehicle: Klucel (hydroxypropylcellulose) (HPC)
[16] = dose: 100.0 mg/kg/injection, schedule: Q01DX001 (ip), vehicle: saline
[17] = dose: 200.0 mg/kg/injection, schedule: Q01DX001 (ip), vehicle: saline
[18] = dose: 400.0 mg/kg/injection, schedule: Q01DX001 (ip), vehicle: saline
[19] = dose: 50.0 mg/kg/injection, schedule: Q04DX002 (ip), vehicle: Klucel (hydroxypropylcellulose) (HPC)
[20] = dose: 50.0 mg/kg/injection, schedule: Q01DX009 (ip), vehicle: Klucel (hydroxypropylcellulose) (HPC)
[21] = dose: 200.0 mg/kg/injection, schedule: Q01DX009 (ip), vehicle: saline with Tween-80
[22] = dose: 400.0 mg/kg/injection, schedule: Q01DX009 (ip), vehicle: saline with Tween-80
[23] = dose: 50.0 mg/kg/injection, schedule: Q01DX001 (ip), vehicle: saline

Measured: T/C

Cc1ccc(NC(=O)c2ccc(C)c([N+](=O)[O-])c2)c(C)c1
inactive: dose: 100.0 mg/kg/injection, schedule: Q01DX009 (sc), vehicle: olive oil, sesame oil, peanut oil 86 % of control | dose: 100.0 mg/kg/injection, schedule: Q04DX003 (sc), vehicle: olive oil, sesame oil, peanut oil 100 % of control | dose: 200.0 mg/kg/injection, schedule: Q01DX009 (sc), vehicle: olive oil, sesame oil, peanut oil 94 % of control | dose: 200.0 mg/kg/injection, schedule: Q04DX003 (sc), vehicle: olive oil, sesame oil, peanut oil 105 % of control | dose: 400.0 mg/kg/injection, schedule: Q01DX009 (sc), vehicle: olive oil, sesame oil, peanut oil 89 % of control | dose: 400.0 mg/kg/injection, schedule: Q04DX003 (sc), vehicle: olive oil, sesame oil, peanut oil 97 % of control

O=C(O)c1cc(Br)c(Br)s1
inactive: dose: 50.0 mg/kg/injection, schedule: Q01DX009 (ip), vehicle: saline with Tween-80 98 % of control | [1] 105 % of control

CC(C)(N)CC(=O)Oc1ccccc1
inactive: dose: 37.5 mg/kg/injection, schedule: Q04DX003 (ip), vehicle: saline 97 % of control | [2] 104 % of control | [3] 101 % of control | dose: 150.0 mg/kg/injection, schedule: Q04DX003 (ip), vehicle: saline 92 % of control

C[P+]1(c2ccccc2)C2C=CC=CC1C=C2 (stereo not given)
inactive: dose: 5.0 mg/kg/injection, schedule: Q01DX001 (ip), vehicle: carboxymethylcellulose (CMC) 100 % of control | dose: 10.0 mg/kg/injection, schedule: Q01DX001 (ip), vehicle: carboxymethylcellulose (CMC) 92 % of control | dose: 20.0 mg/kg/injection, schedule: Q01DX001 (ip), vehicle: carboxymethylcellulose (CMC) 97 % of control

Cc1ccc(C(=O)OCC2OC3OC(C)(C)OC3C2OC(=O)c2ccc(C)cc2)cc1 (stereo not given)
inactive: [4] 90 % of control | [5] 104 % of control | [6] 101 % of control

Cc1ccc(OCCOC(=O)COc2ccc(Cl)cc2Cl)cc1C
inactive: [7] 102 % of control | [8] 97 % of control | [9] 102 % of control

CC1(C)OC2C3CC(C2O1)n1cnc2c(N)nc[n+](c21)C3 (stereo not given)
inactive: [2] 120 % of control | [3] 101 % of control | dose: 300.0 mg/kg/injection, schedule: Q01DX001 (ip), vehicle: saline 106 % of control

CCCCNC(=O)N(C)Cc1ccccc1
inactive: [7] 105 % of control | [8] 97 % of control | [9] 112 % of control

COc1cc(/C=N/O)cc(I)c1O
inactive: [10] 104 % of control | [11] 101 % of control | [12] 101 % of control

CCCCc1ccc(OCCBr)cc1
inactive: dose: 100.0 mg/kg/injection, schedule: Q01DX009 (ip), vehicle: saline sonified 102 % of control | [13] 95 % of control | dose: 200.0 mg/kg/injection, schedule: Q01DX009 (ip), vehicle: saline sonified 98 % of control | [14] 103 % of control | dose: 400.0 mg/kg/injection, schedule: Q01DX009 (ip), vehicle: saline sonified 95 % of control | [15] 101 % of control

O=[N+]([O-])c1ccc(N/N=C/c2cc(Cl)cc(Cl)c2)c([N+](=O)[O-])c1
inactive: [16] 100 % of control | [17] 105 % of control | [18] 96 % of control

Cc1nc2ccccc2[nH]1
inactive: dose: 25.0 mg/kg/injection, schedule: Q04DX002 (ip), vehicle: Klucel (hydroxypropylcellulose) (HPC) 109 % of control | [19] 105 % of control | [7] 105 % of control

Cc1ccc(NC(=O)Sc2ccc(Cl)cc2)c([N+](=O)[O-])c1
inactive: [20] 109 % of control | [10] 98 % of control | [13] 102 % of control | [11] 106 % of control | [14] 104 % of control | [15] 109 % of control

CS(=O)(=O)Nc1ccccc1-c1nc2ccccc2c(=O)o1
inactive: [19] 98 % of control | [7] 98 % of control | [8] 98 % of control | [9] 92 % of control

Cc1ccc(C(=O)n2c(Cl)c(/C=N/NC(N)=S)c3ccccc32)cc1
inactive: [19] 87 % of control | [7] 95 % of control

O=S(=O)(Nc1ccc(NS(=O)(=O)c2ccccc2)c(S(=O)(=O)c2ccccc2)c1)c1ccccc1
inactive: [1] 100 % of control | [21] 98 % of control | [22] 94 % of control

O=C(CCCC(=O)N/N=C/C=C/c1ccccc1)N/N=C/C=C\c1ccccc1
inactive: [23] 87 % of control | [16] 110 % of control | [17] 93 % of control | [18] 97 % of control

CC(=O)OC1CCC2(C)C(CCC3C2C(=O)C(OC(C)=O)C2(C)C3CC3OC4(CCC(C)CO4)C(C)C32)C1 (stereo not given)
inactive: [1] 90 % of control | [21] 95 % of control | [22] 101 % of control

CN(CCC#N)C1=CCCC1
inactive: dose: 100.0 mg/kg/injection, schedule: Q04DX003 (ip), vehicle: saline sonified 100 % of control | dose: 200.0 mg/kg/injection, schedule: Q04DX003 (ip), vehicle: saline sonified 111 % of control | dose: 400.0 mg/kg/injection, schedule: Q04DX003 (ip), vehicle: saline sonified 96 % of control

CC(C)(C)NC(=O)Oc1ccc(-c2ccccc2)cc1
inactive: [10] 99 % of control | [11] 95 % of control | [12] 95 % of control

Cc1ccc(-n2c(=O)[nH]c3c(c2=O)C(c2ccc(Cl)cc2)C(C)(C)O3)cc1 (stereo not given)
inactive: dose: 12.5 mg/kg/injection, schedule: Q01DX001 (ip), vehicle: saline 97 % of control | dose: 12.5 mg/kg/injection, schedule: Q04DX003 (ip), vehicle: saline 107 % of control | dose: 25.0 mg/kg/injection, schedule: Q04DX003 (ip), vehicle: saline 101 % of control | [23] 96 % of control | dose: 50.0 mg/kg/injection, schedule: Q04DX003 (ip), vehicle: saline 90 % of control | dose: 75.0 mg/kg/injection, schedule: Q04DX003 (ip), vehicle: saline 97 % of control | dose: 113.0 mg/kg/injection, schedule: Q04DX003 (ip), vehicle: saline 94 % of control | dose: 169.0 mg/kg/injection, schedule: Q04DX003 (ip), vehicle: saline 95 % of control

O=[N+]([O-])c1ccc(-c2cnc(Br)c3ccccc23)cc1
inactive: dose: 25.0 mg/kg/injection, schedule: Q04DX003 (ip), vehicle: DMSO 96 % of control | dose: 50.0 mg/kg/injection, schedule: Q04DX003 (ip), vehicle: DMSO 93 % of control | dose: 100.0 mg/kg/injection, schedule: Q04DX003 (ip), vehicle: DMSO 93 % of control | dose: 200.0 mg/kg/injection, schedule: Q04DX003 (ip), vehicle: DMSO 93 % of control | dose: 400.0 mg/kg/injection, schedule: Q04DX003 (ip), vehicle: DMSO 93 % of control

O=[N+]([O-])c1ccc(N=N/C(Cc2ccccc2)=N\Nc2ccccc2)cc1
inactive: [20] 90 % of control | [10] 95 % of control | [13] 87 % of control | [11] 92 % of control | [14] 100 % of control | [12] 90 % of control | [15] 101 % of control

COc1ccc(C(=O)c2ccc(Br)s2)cc1
inactive: [10] 94 % of control | [13] 97 % of control | [11] 97 % of control | [14] 97 % of control | [12] 95 % of control | [15] 96 % of control

O=C(O)c1c[nH]c2c(C(F)(F)F)cccc2c1=O
inactive: dose: 50.0 mg/kg/injection, schedule: Q01DX001 (ip), vehicle: carboxymethylcellulose (CMC) 88 % of control | [4] 98 % of control | [5] 88 % of control | [6] 90 % of control
